In patent publication US7223770B2, “Tocopherol-modified therapeutic drug compounds” (priority 2003, dated 2007):
Structures can show the parent of a compound that is named as a salt. Where two headings read alike, the source gives them in different places. Marks after values point to notes of the source that are not given here.

Columns and labels:
[1] = test system: NCI-H460 (non-small cell lung); conditions: NCI-H460 (NSCLC); value reported by NCI; cited from earlier work
HT-29 (colorectal) [2] = conditions: HT29 (COLON); value reported by NCI; cited from earlier work
HCT-116 (colorectal) [3] = conditions: HCT-116 (COLON); value reported by NCI; cited from earlier work
OVCAR-3 (ovarian) [4] = conditions: value reported by NCI; cited from earlier work
HCT-15 (colorectal) [5] = conditions: HCT-15 (COLON); value reported by NCI; cited from earlier work
OVCAR-3 (ovarian) [6] = test: In vitro cytotoxicity GI50, ALAMAR BLUE, 48 hours; type: cell-based; conditions: emulsion formulation diluted in cell media
Procedure: (§1) The cells were in contact with varying concentrations of the test article for a period of 48 hours. At the end of 48 hours, staining with ALAMAR BLUE was performed to determine the number of viable cells and calculate the degree of cellular growth inhibition as compared to a control group.

HCT-15 (colorectal) [7] = test: In vitro cytotoxicity GI50, ALAMAR BLUE, 48 hours; type: cell-based; conditions: HCT-15 (COLON), emulsion formulation diluted in cell media
Procedure: as §1

MCF-7 (breast) [8] = test: In vitro cytotoxicity GI50, ALAMAR BLUE, 48 hours; type: cell-based; conditions: emulsion formulation diluted in cell media
Procedure: as §1

HCT-116 (colorectal) [9] = test: In vitro cytotoxicity GI50, ALAMAR BLUE, 48 hours; type: cell-based; conditions: HCT-116 (COLON), emulsion formulation diluted in cell media
Procedure: as §1

[10] = Pharmacokinetics following intravenous administration in rats; type: in vivo, Sprague-Dawley rats; conditions: for Clearance / MRT / t1/2 (elimination): Sprague-Dawley rats, bolus intravenous, emulsion, approximately 14 mg/kg, plasma; for Plasma elimination half-life, times longer than the commercially available analogs: rats, intravenous
Procedure: Blood samples were collected for up to 120 hours post dose via the jugular vein. […] A noncompartmental analysis was carried out using WinNonlin (v 4.1).
The term “elimination rate constant” refers to the fraction of drug eliminated per unit of time. With first-order elimination, the rate of elimination is directly proportional to the serum drug concentration. There is a linear relationship between rate of elimination and serum drug concentration. Although the amount of drug eliminated in a first-order process changes with concentration, the fraction of a drug eliminated remains constant.
The term “clearance” refers to a measure of the body's ability to eliminate drug and is a hypothetical volume of distribution of drug which is cleared per unit time (i.e., mL/min) by any pathway of drug removal. […] The term “volume of distribution” refers to a calculated volume of body fluid that would be required to dissolve the total amount of drug at the same concentration as that found in the blood. It is a proportionality constant relating the amount of drug in the body to the measured concentration in biological fluid (blood, plasma, serum).

HT-29 (colorectal) [11] = test: In vitro cytotoxicity GI50, ALAMAR BLUE, 48 hours; type: cell-based, human; conditions: HT29 (COLON), emulsion formulation diluted in cell media
Procedure: as §1

[12] = test system: NCI-H460 (non-small cell lung); test: In vitro cytotoxicity GI50, ALAMAR BLUE, 48 hours; type: cell-based, human; conditions: NCI-H460 (NSCLC), emulsion formulation diluted in cell media
Procedure: as §1

HT-29 human tumor cells = test: HT-29 Human Tumor Xenograft anti-tumor activity; type: in vivo, Athymic mice; conditions: for Number of animals with no measurable tumor on Day 55 / Tumor Growth Delay (T − C) / Tumor Growth Inhibition (% T/C) / Tumors that had still not reached maximum pre-determined size: 15 mg/kg intravenous; for Tumor Growth Inhibition (% T/C): at Day 55
Procedure: HT-29 Human Tumor Xenograft. Athymic mice were subcutaneously implanted with 30–40 mg tumor fragments using 12-gauge trocar needles. A sufficient number of mice were implanted with fragments so tumors in narrow weight range (100–200 mg) were selected for the trial on staging day (SD). The animals selected with tumors in the proper size range were randomized into six groups of 10 animals and intravenously administered the following test compounds:
The tumor measurements were performed using a caliper (millimeters); the tumor volume was calculated based on the formula: (Length×width^2)/2=Volume (mm^3).

[13] = In vitro stability of the lactone form in presence of human serum albumin; type: in vitro ADME; conditions: saline buffered solution 10 mM pH 7.4, 4% human serum albumin, 37° C.; tested as SN2300 / SN2310 emulsion; FIG. 12
From the text: High performance liquid chromatography with fluorescence detection was used to analyze the decrease in the concentration of the lactone form over time.

[14] = type: physicochemical; conditions: for Solubility in TPGS / Solubility in Vitamin E USP/NF: 65 °C; for Solubility in Tween 80 NF: 65 → Room Temp.; for Solubility in Acetonitrile / Solubility in Captex 300 EP / Solubility in Chloroform / Solubility in DMSO / Solubility in Ethanol Denatured / Solubility in Glycerin USP/EP/BP/JP / Solubility in Methanol / Solubility in Methylene dichloride / Solubility in PEG-400 NF / Solubility in Propylene Glycol, USP / Solubility in Soybean Oil USP: Room Temp.
Procedure: Compounds were dissolved in each solvent under constant stirring and temperature to saturation. The resulting solutions were centrifuged and the supernatant was analyzed by high performance liquid chromatography (HPLC).

MCF-7 (breast) [15] = conditions: value reported by NCI; cited from earlier work
[16] = rats, intravenous; literature value; cited from earlier work
[17] = q1dx5, fifty-five days after dose initiation

Row | Compound | GI50 [1] | GI50 (HT-29 (colorectal) [2]) | GI50 (HCT-116 (colorectal) [3]) | GI50 (OVCAR-3 (ovarian) [4]) | GI50 (HCT-15 (colorectal) [5]) | GI50 (HCT-15 (colorectal) [7]) | GI50 (HCT-116 (colorectal) [9]) | Clearance [10] | MRT [10] | t1/2 (elimination) [10] | Plasma elimination half-life, times longer than the commercially available analogs [10] | GI50 (HT-29 (colorectal) [11]) | GI50 [12] | Number of animals with no measurable tumor on Day 55 (HT-29 human tumor cells; q1dx5 (2 weeks)) | Tumor Growth Delay (T − C) (HT-29 human tumor cells; q1dx5 (2 weeks)) | Tumor Growth Inhibition (% T/C) (HT-29 human tumor cells; q1dx5 (2 weeks)) | Number of animals with no measurable tumor on Day 55 (HT-29 human tumor cells; q3dx10) | Tumor Growth Delay (T − C) (HT-29 human tumor cells; q3dx10) | Tumor Growth Inhibition (% T/C) (HT-29 human tumor cells; q3dx10) | Stability of the lactone form over time [13] | other results
1 | CCc1c2c(nc3ccc(O)cc13)-c1cc3c(c(=O)n1C2)COC(=O)[C@]3(O)CC [SN38, 7-ethyl-10-hydroxycamptothecin] | 1.4 nM | 1 nM | 21 nM | 2.9 nM | 7.9 nM | – | – | – | – | – | – | – | – | – | – | – | – | – | – | – | –
2 | CC[C@@]1(OC(=O)CCC(=O)Oc2c(C)c(C)c3c(c2C)CC[C@@](C)(CCC[C@H](C)CCC[C@H](C)CCCC(C)C)O3)C(=O)OCc2c1cc1n(c2=O)Cc2cc3ccccc3nc2-1 [SN2300] | – | – | – | – | – | 20 µM | 449 nM | 8.1 mL/h/kg | 9.40 h | 29.08 h | approximately 30 times | 434 nM | 43 nM | 0/10 | 8.5 days | 79 % T/C | 0/10 | 0 days | 102 % T/C | greater than that of camptothecin | GI50 column, result in words (Poor activity) (OVCAR-3 (ovarian) [6]): Poor; GI50 (MCF-7 (breast) [8]): 325 nM; Solubility in TPGS [14]: >133.3 mg/g; Solubility in Vitamin E USP/NF [14]: >288.3 mg/g; Solubility in Tween 80 NF [14]: 48.3 mg/g; Solubility in Acetonitrile [14]: 49.6 mg/g; Solubility in Captex 300 EP [14]: 96.7 mg/g; Solubility in Chloroform [14]: >372.5 mg/g; Solubility in DMSO [14]: >255.5 mg/g; Solubility in Ethanol Denatured [14]: 57.1 mg/g; Solubility in Glycerin USP/EP/BP/JP [14]: 2.541 mg/g; Solubility in Methanol [14]: 14.4 mg/g; Solubility in Methylene dichloride [14]: >336.5 mg/g; Solubility in PEG-400 NF [14]: 17.5 mg/g; Solubility in Propylene Glycol, USP [14]: 0.4633 mg/g; Solubility in Soybean Oil USP [14]: 45.2 mg/g
3 | CCc1c2c(nc3ccc(OC(=O)CCC(=O)Oc4c(C)c(C)c5c(c4C)CC[C@@](C)(CCC[C@H](C)CCC[C@H](C)CCCC(C)C)O5)cc13)-c1cc3c(c(=O)n1C2)COC(=O)[C@]3(O)CC [SN2310] | – | – | – | – | – | 0.099 µM | 119 nM | 6.7 mL/h/kg | 5.15 h | 3.49 h | ~3 times | 91 nM | 4 nM | 4/10 | >28* days | 4 % T/C | 8/10 | >28* days | 2 % T/C | greater than that of camptothecin | GI50 (OVCAR-3 (ovarian) [6]): 83 nM; Tumors that had still not reached maximum pre-determined size (HT-29 human tumor cells; q1dx5 (2 weeks)): *90% of tumors in this group had still not reached maximum pre-determined size.; Tumors that had still not reached maximum pre-determined size (HT-29 human tumor cells; q3dx10): *90% of tumors in this group had still not reached maximum pre-determined size.; Median tumor size (HT-29 human tumor cells; [17]): 126 mm^3; Mice with no measurable tumor (HT-29 human tumor cells; [17]): 40%; Mice with no measurable tumor (HT-29 human tumor cells; q3dx10, fifty-five days after dose initiation): 80%; Solubility in TPGS [14]: 27.6 mg/g; Solubility in Vitamin E USP/NF [14]: 398.2 mg/g; Solubility in Tween 80 NF [14]: 2.7 mg/g; Solubility in Acetonitrile [14]: 3.1 mg/g; Solubility in Captex 300 EP [14]: 4.4 mg/g; Solubility in Chloroform [14]: >97.0 mg/g; Solubility in DMSO [14]: 30.5 mg/g; Solubility in Ethanol Denatured [14]: 4.2 mg/g; Solubility in Glycerin USP/EP/BP/JP [14]: 2.8 mg/g; Solubility in Methanol [14]: 3.8 mg/g; Solubility in Methylene dichloride [14]: >99.7 mg/g; Solubility in PEG-400 NF [14]: 0.017 mg/g; Solubility in Propylene Glycol, USP [14]: 3.2 mg/g; Solubility in Soybean Oil USP [14]: 3.3 mg/g
4 | CC[C@@]1(O)C(=O)OCc2c1cc1n(c2=O)Cc2cc3c(CN(C)C)c(O)ccc3nc2-1 [Topotecan, topotecan hydrochloride] | 19.9 nM | 125 nM | 39.8 nM | 251 nM | 501 nM | – | – | – | – | – | – | – | – | – | – | – | – | – | – | – | GI50 (MCF-7 (breast) [15]): 15.8 nM; Clearance [16]: 3.22 L/h/kg; t1/2 (elimination) [16]: 1.06 h
